Experimental data taken from patent publication US8026282B2, “Phenoxyalkylcarboxylic acid derivatives in the treatment of irritable bowel syndrome” (Medicinova, Inc., priority 2004, dated 2011).

Experiments:
[1] = Bioavailability of polymorphs of compound 1; assay type: in vivo; conditions: compared to the other polymorphs
[2] = Solubility of polymorphs of compound 1; assay type: physicochemical; conditions: compared to the other polymorphs
[3] = tested on: interstitial cystitis (IC); assay: Example 8: patient with interstitial cystitis symptoms; assay type: in vivo, human; conditions: 1000 mg tablet orally twice daily for at least 2 months; present-tense example
Experimental: A person complains of suffering symptoms associated with interstitial cystitis (IC), including gastrointestinal symptoms of diarrhea, bloating and pain. In an effort to alleviate these symptoms, a tablet containing 1000 mg of compound (1) (Form A) is administered orally to this patient twice daily for at least 2 months. […] Similar positive results are observed for other patients complaining of the same or similar symptoms attributable to IC.

For `CCCc1c(SCCCOc2ccc(C(C)=O)c(OCCCC(=O)O)c2CCC)ccc(C(C)=O)c1O` [Form A, 4-[6-acetyl-3-[3-(4-acetyl-3-hydroxy-2-propylphenylthio)propoxy]-2-propylphenoxy]butyric acid], the bioavailability [1] was “superior”, the solubility [2] was “superior” and the “symptoms of interstitial cystitis reported by patient” value [3] was “positive effects”.
